Data: PMC9394307, “Discovery of Putative Dual Inhibitor of Tubulin and EGFR by Phenotypic Approach on LASSBio-1586 Homologs” (Pharmaceuticals, 2022)
Read-outs that look alike come from different tables or passages of the source.

Key:
[1] = MTT cell viability assay, GM16000 lymphocytes; type: cell-based; settings: human lymphocytes, value (95% CI)
Description: (§1) The cytotoxic activity of compounds 3–13 was determined based on an MTT assay against different human tumor cell lines, using LASSBio-1586 (2), LASSBio-1735 (3), CA-4 (1) and pelitinib as standards (Table 2). To determine the cytotoxic selectivity index, compounds were also evaluated toward human lymphocytes (Table 3).
To establish the cytotoxic selective index (SI) of LASSBio-1586 homologs, they were studied on human lymphocyte cell lines (GM16000), using the MTT assay. The SI was calculated by the ratio between the CC50 on tumor and non-tumor cell lines. Although there is no consensus, values of SI ≥ 10 is considered satisfactory to assign safety to a new cytotoxic agent. This value means that the compound is more than ten times more cytotoxic to the tumor cell line than to normal cell line.
(§2) The target compounds were tested (0.0001–100 µM) for cytotoxic activity against selected human cancer cell lines, such as HL-60 (acute promyelocytic leukemia), MCF-7 (mammary adenocarcinoma), PC-3 (prostate adenocarcinoma), H1975 (non-small cell lung cancer—EGFR^L858R+T790M), PC-9 (non-small cell lung cancer—EGFR^L858R) H292 (mucoepidermoid pulmonary carcinoma—EGFR wild type), LoVo (colorectal adenocarcinoma—EGFRwild type) and GM16000 (lymphocyte). All the human cancer cell lines were purchased from Cell Bank of Rio de Janeiro—BCRJ. They were cultured in RPMI 1640 medium with 10% (v/v) FBS, 2 mM glutamine, at 37 °C in a humidified incubator containing 5% CO2.
(§3) The cytotoxicity of the compounds was evaluated by the MTT assay. The cell lines were cultured in 96 well plates for 72 h with a density of 0.1 × 10^5 cells/mL to 0.7 × 10^5 cells/mL to adherent cell lines. For lymphocytic lines, a density of 0.3 × 10^6 cells/mL was used. Afterwards they were treated with varying concentrations of the target compounds 2–12 (0.0001–100 µM), CA-4 (1) and pelitinib at 37 °C, in triplicate. The medium was incubated with 20 μL of 5 mg/mL MTT solution for 3 h in a humidified incubator containing 5% CO2 [11].
(§4) The purple-colored formazan crystals formed in the wells were dissolved in DMSO and their absorbance was measured at 595 nm with a microplate reader (SpectraMax M5, Molecular Devices).

H292 = assay: MTT cell viability assay, H292; type: cell-based, human; settings: Homo sapiens, read-out: CC50 (µM) (CI) H292
Description: as §1, §2
as §3, with “The cell lines were cultured in 96 well plates for 72 h with a density of 0.1 × 10^5 cells/mL to 0.7 × 10^5 cells/mL to adherent cell lines.” left out
as §4

H1975 cells [2] = assay: Cell cycle analysis by flow cytometry (Guava Muse Cell Cycle Kit); type: cell-based, human; settings: H1975, 48 h of treatment; CA-4 0.04 µM, LASSBio-1586 2.0 µM, LASSBio-1735 0.08 µM, LASSBio-2070 3.0 µM, LASSBio-2074 1.5 µM; vs DMSO 0.1%
Description: Changes in the cell cycle are important aspect in tumorigenesis. Therefore, the identification of the steps related to inhibition of cell multiplication is an important process during the discovery of new antitumoral drug candidates. […] Flow cytometry was used for cell cycle analysis to estimate the percentages of a cell population in the different phases of the cell cycle. The analysis was performed using the lung cancer cell line H1975 treated with CA-4 (1, 0.04 µM), LASSBio-1586 (2, 2.0 µM), LASSBio-1735 (3, 0.08 µM), LASSBio-2070 (10, 3.0 µM) and LASSBio-2074 (11, 1.5 µM).
(§5) Flow cytometry was applied to help elucidate the mechanism of action of the studied compounds, both to verify the cell cycle phase and to verify the action on EGFR protein kinase.
The anti-tubulin effect was evaluated by seeding H1975, H292 and PC-9 into 6-well plates at a density of 2 × 10^5 per well. […] Cells were harvested and stained according to the protocols of The Guava Muse® Cell Cycle Kit (MCH100106) to quantitatively measure the percentage of cells in the G2/M phases of the cell cycle and the EGFR-RTK Activation Dual Detection Kit (MCH200102) (Luminex®) to measure EGFR phosphorylation in relation to total EGFR expression in the cell population, according to the manufacturer’s instructions for use in test kits using a Guava Muse® Cell Analyzer (Luminex®). Each experiment was performed at least three times independently.

PC-3 = assay: MTT cell viability assay, PC-3; type: cell-based; settings: Homo sapiens, PC-3, 72 h, read-out: CC50 (µM) (CI) PC-3
Description: as §1, §2, §3, §4

H1975 cells [3] = assay: Immunofluorescence of β-tubulin / microtubules; type: cell-based, human; settings: H1975, 48 h; CA-4 0.3 µM, vincristine 0.5 µM, taxol 0.1 µM, LASSBio-1586 10 µM, LASSBio-1735 0.5 µM, LASSBio-2070 4.5 µM, LASSBio-2074 20 µM
Description: Antitubulin agents have been broadly classified into destabilizing or stabilizing agents, based on their interference with the dynamic balance of polymerization or depolymerization of microtubules. […] CA-4 (1, 0.3 µM), vincristine (0.5 µM) and taxol (0.1 µM) were used as standard controls.
After incubation, cells were rinsed with PBS and fixed with 4% paraformaldehyde in PBS for 10 min at room temperature. They were then permeabilized with 0.5% Triton-X 100 in PBS 3 times for 10 min. The same solution was used for all subsequent washing steps. Cells were incubated with an anti-beta-tubulin antibody for 1 h at 37 °C. After incubation, cells were washed for 30 min and incubated with Alexa Fluor® 488, conjugated secondary antibody for 1 h at 37 °C, and nuclei were labeled with DAPI (0.1 mg/mL in 0.9% NaCl).
Live cultured cells grown in coverslips were mounted in Prolong Gold solution (Molecular Probes, USA) and were imaged on a Leica TCS SPE confocal microscope (Leica Microsystems, Germany) using 63x 1.3 N.A. oil immersion and the images acquired by the LAS X software. Cell morphology, focusing on the microtubules was analyzed, qualitatively, using the public domain NIH ImageJ Program (developed at the National Institutes of the USA Health and available on the internet at http://imagej.nih.gov/ij/ (accessed on 1 September 2021).

MCF-7 = assay: MTT cell viability assay, MCF-7; type: cell-based, human; settings: Homo sapiens, MCF7, 72 h, read-out: CC50 (µM) (CI) MCF-7
Description: as §1, §2, §3, §4

H1975 = assay: MTT cell viability assay, H1975; type: cell-based, human; settings: Homo sapiens, read-out: CC50 (µM) (CI) H1975
Description: as §1, §2
as §3, with “The cell lines were cultured in 96 well plates for 72 h with a density of 0.1 × 10^5 cells/mL to 0.7 × 10^5 cells/mL to adherent cell lines.” left out
as §4

[4] = MTT cell viability assay, GM16000 lymphocytes; type: cell-based; settings: human lymphocytes, value (95% CI); remark: listed apart in the source
LoVo = assay: MTT cell viability assay, LoVo; type: cell-based; settings: Homo sapiens, read-out: CC50 (µM) (CI) LoVo
Description: as §1, §2, §3, §4

PC-9 = assay: MTT cell viability assay, PC-9; type: cell-based, human; settings: Homo sapiens, read-out: CC50 (µM) (CI) PC-9
Description: as §1, §2
as §3, with “The cell lines were cultured in 96 well plates for 72 h with a density of 0.1 × 10^5 cells/mL to 0.7 × 10^5 cells/mL to adherent cell lines.” left out
as §4

HL-60 = assay: MTT cell viability assay, HL-60; type: cell-based, human; settings: Homo sapiens, read-out: CC50 (µM) (CI) HL-60
Description: as §1, §2
as §3, with “The cell lines were cultured in 96 well plates for 72 h with a density of 0.1 × 10^5 cells/mL to 0.7 × 10^5 cells/mL to adherent cell lines.” left out
as §4

[5] = tested on: EGFR in PC-9 cell line (EGFR^L858R); assay: Guava Muse EGFR-RTK Activation Dual Detection Kit, flow cytometry; type: cell-based, human
Description: as §5
The anti-tubulin effect was evaluated by seeding H1975, H292 and PC-9 into 6-well plates at a density of 2 × 10^5 per well. The cells were treated with the selected compounds for 72 h. Cells were harvested and stained according to the protocols of The Guava Muse® Cell Cycle Kit (MCH100106) to quantitatively measure the percentage of cells in the G2/M phases of the cell cycle and the EGFR-RTK Activation Dual Detection Kit (MCH200102) (Luminex®) to measure EGFR phosphorylation in relation to total EGFR expression in the cell population, according to the manufacturer’s instructions for use in test kits using a Guava Muse® Cell Analyzer (Luminex®). Each experiment was performed at least three times independently.

COc1ccc(/C=C\c2cc(OC)c(OC)c(OC)c2)cc1O [CA-4 (1), Combretastatin A-4, reference compound]
CC50 at 72 h [1]: 0.064 µM | CC50 (H292; NCI-H292, 48 h): 0.091 µM | CC50 (H292; NCI-H292, 72 h): 0.013 µM | cell cycle distribution (G0/G1, S, G2/M) (H1975 cells [2]): increased cells in phase G2/M | CC50 (PC-3): 0.096 µM | cell morphology after treatment (H1975 cells [3]): rounded shape | effect on microtubules (stabilizing / destabilizing profile) (H1975 cells [3]): typical response of microtubule destabilizing agents | CC50 (MCF-7): 8.58 µM | CC50 (H1975; NCI-H1975, 48 h): 0.058 µM | CC50 (H1975; NCI-H1975, 72 h): 0.035 µM | CC50 at 48 h [4]: 0.016 µM | CC50 (LoVo; 48 h): 0.179 µM | CC50 (LoVo; 72 h): 0.039 µM | CC50 (PC-9; PC-9, 48 h): 0.025 µM | CC50 (PC-9; PC-9, 72 h): 0.01 µM | CC50 (HL-60; HL-60, 48 h): 1.3 µM | CC50 (HL-60; HL-60, 72 h): 0.077 µM

C=CC(=O)Nc1cc(Nc2nccc(-c3cn(C)c4ccccc34)n2)c(OC)cc1N(C)CCN(C)C [Osimertinib, reference compound]
cells with Inactivated EGFR (EGFR inactivation index) [5]: 30%
